The target of the assay is T1, NLRP3 (Homo sapiens, UniProt Q96P20).
T1 construct: host or cells: PMA-differentiated THP-1 cells
Kind of assay: Measurement of IL-1β production in PMA-differentiated THP-1 cells (NLRP3 hIL1B). Type of assay: cell-based. In a few lines:
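THP-1 cells differentiated with PMA, then replated in RPMI with 2% FBS and exposed to compound for 4 h (alternative: 2 h; hTRF protocol: 2 h at 37 °C, top concentration 10 μM). Supernatant IL-1β was quantified by ELISA or HTRF. Final DMSO 1%, with vehicle control.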

T1 sequence (Q96P20 whole entry): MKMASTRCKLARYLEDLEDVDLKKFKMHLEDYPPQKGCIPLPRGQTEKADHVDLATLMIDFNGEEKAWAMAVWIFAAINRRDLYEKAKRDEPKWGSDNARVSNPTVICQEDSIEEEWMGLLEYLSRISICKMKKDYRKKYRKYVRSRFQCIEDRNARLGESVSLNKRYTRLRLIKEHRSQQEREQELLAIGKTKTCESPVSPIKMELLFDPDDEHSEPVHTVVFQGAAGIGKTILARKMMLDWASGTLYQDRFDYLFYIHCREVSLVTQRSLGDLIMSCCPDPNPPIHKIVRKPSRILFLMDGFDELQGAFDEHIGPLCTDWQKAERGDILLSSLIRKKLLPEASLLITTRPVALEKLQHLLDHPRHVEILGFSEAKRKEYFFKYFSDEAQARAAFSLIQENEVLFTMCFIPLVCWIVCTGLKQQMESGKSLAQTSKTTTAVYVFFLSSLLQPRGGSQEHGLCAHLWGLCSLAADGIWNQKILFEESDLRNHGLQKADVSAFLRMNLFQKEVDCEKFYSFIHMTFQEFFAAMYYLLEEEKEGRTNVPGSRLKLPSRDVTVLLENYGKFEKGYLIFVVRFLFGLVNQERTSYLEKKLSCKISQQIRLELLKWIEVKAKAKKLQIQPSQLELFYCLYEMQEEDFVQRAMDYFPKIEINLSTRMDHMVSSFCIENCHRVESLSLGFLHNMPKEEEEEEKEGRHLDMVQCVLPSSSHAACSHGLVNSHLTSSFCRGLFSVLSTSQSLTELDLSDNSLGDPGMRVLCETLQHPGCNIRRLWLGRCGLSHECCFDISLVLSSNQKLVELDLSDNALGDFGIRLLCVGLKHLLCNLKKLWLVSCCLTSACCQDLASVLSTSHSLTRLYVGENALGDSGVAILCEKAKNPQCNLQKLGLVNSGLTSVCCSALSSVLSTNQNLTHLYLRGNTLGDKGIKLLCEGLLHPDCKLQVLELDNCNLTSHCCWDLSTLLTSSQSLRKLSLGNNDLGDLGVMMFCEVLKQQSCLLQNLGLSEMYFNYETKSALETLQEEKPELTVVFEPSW

Turning to `Nc1nc(OCCO)c2ccc(-c3ccn[nH]3)cc2n1` [Example 4, 2-((2-amino-7-(1H-pyrazol-3-yl)quinazolin-4-yl)oxy)ethan-1-ol], the EC50 came out at 6.54 µM.

One may read the EC50 as the midpoint of the concentration-response curve. The low end stands for higher potency in that assay, the high end for lower potency in that assay.
